Measured values: ChEMBL document CHEMBL1153866, “Design, synthesis and evaluation of galanthamine derivatives as acetylcholinesterase inhibitors” (Eur J Med Chem, 2009)

What was measured:
[1] = biological target: T1, Acetylcholinesterase (Rattus norvegicus, UniProt P37136); experiment: Inhibition of AChE from rat cortex homogenate by Ellmans method
T1 sequence (P37136 whole entry): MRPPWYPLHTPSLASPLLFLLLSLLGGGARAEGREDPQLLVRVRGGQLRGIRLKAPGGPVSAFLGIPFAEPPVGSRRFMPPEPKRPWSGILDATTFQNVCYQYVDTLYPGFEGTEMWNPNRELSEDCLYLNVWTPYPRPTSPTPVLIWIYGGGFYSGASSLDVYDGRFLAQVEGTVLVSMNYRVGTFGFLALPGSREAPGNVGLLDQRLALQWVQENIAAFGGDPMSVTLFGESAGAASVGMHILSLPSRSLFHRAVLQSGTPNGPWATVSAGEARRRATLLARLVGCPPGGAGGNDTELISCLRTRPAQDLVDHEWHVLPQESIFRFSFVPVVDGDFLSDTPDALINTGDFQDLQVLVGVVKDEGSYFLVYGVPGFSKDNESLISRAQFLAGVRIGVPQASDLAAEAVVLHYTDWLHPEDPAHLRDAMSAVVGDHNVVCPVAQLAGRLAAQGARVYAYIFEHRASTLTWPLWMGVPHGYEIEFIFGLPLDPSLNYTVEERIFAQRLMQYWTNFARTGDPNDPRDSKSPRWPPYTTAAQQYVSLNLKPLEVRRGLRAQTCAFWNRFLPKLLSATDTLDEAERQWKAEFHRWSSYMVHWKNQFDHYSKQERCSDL

[2] = biological target: Butyrylcholinesterase (Rattus norvegicus, UniProt Q9JKC1); experiment: Inhibition of BChE from rat serum by Ellmans method; format: cell-free
Sequence of Butyrylcholinesterase (Q9JKC1 whole entry): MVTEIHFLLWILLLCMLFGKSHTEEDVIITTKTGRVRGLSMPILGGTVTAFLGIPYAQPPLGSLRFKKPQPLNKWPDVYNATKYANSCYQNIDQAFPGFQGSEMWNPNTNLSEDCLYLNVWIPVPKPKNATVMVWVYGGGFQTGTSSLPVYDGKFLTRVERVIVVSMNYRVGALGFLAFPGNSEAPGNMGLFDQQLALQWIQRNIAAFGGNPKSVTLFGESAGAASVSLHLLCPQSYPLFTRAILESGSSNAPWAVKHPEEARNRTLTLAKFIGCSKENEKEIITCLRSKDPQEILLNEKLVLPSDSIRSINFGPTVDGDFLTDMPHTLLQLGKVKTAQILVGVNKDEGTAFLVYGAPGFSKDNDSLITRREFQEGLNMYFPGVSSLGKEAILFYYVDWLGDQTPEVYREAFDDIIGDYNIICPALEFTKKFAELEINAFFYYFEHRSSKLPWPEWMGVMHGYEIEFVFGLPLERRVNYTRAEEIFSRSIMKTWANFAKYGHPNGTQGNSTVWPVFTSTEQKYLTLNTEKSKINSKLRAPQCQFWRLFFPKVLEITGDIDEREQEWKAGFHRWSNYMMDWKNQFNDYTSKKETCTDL

Structure (SMILES): CCN(CC)Cc1ccc(OCCCCCCN2CC[C@@]34C=C[C@H](O)C[C@@H]3Oc3c(OC)ccc(c34)C2)cc1
- IC50 [1]: 8.86 nM
- IC50 [2]: 41 µM

Structure (SMILES): COc1ccc2c3c1O[C@H]1C[C@@H](O)C=C[C@@]31CCN(CCCCCCCCOc1ccc(CN3CCCCC3)cc1)C2
- IC50 [1]: 34.7 nM
- IC50 [2]: 53 µM

Structure (SMILES): COc1ccc2c3c1O[C@H]1C[C@@H](O)C=C[C@@]31CCN(CCCCCCCCCCCCOc1ccc(CN3CCCCC3)cc1)C2
- IC50 [1]: 58.1 nM
- IC50 [2]: 1.2 µM

Structure (SMILES): COc1ccc2c3c1O[C@H]1C[C@@H](O)C=C[C@@]31CCN(CCCCOC1CCN(Cc3ccccc3)CC1)C2
- IC50 [1]: 306 nM
- IC50 [2]: 4.3 µM

Structure (SMILES): COc1ccc2c3c1O[C@H]1C[C@@H](O)C=C[C@@]31CCN(CCCCCCOc1ccc(CN3CCOCC3)cc1)C2
- IC50 [1]: 113 nM
- IC50 [2]: 3.9 µM

Structure (SMILES): COc1ccc2c3c1O[C@H]1C[C@@H](O)C=C[C@@]31CCN(CCCCCCCCCCOc1ccc(CN3CCCCC3)cc1)C2
- IC50 [1]: 61.2 nM
- IC50 [2]: 93 µM

Structure (SMILES): COc1ccc2c3c1O[C@H]1C[C@@H](O)C=C[C@@]31CCN(CCCCCCOc1ccc(CN3CCCCC3)cc1)C2
- IC50 [1]: 5.62 nM
- IC50 [2]: 33 µM

Structure (SMILES): CCN(CC)Cc1ccc(OCCCCN2CC[C@@]34C=C[C@H](O)C[C@@H]3Oc3c(OC)ccc(c34)C2)cc1
- IC50 [1]: 14.6 nM
- IC50 [2]: 34 µM

Structure (SMILES): COc1ccc2c3c1O[C@H]1C[C@@H](O)C=C[C@@]31CCN(CCCCCCOc1cccc(C(C)N3CCOCC3)c1)C2 (some centres not stated)
- IC50 [1]: 154 nM
- IC50 [2]: 5.8 µM

Structure (SMILES): COc1ccc2c3c1O[C@H]1C[C@@H](O)C=C[C@@]31CCN(CCOc1ccc(CN3CCCCC3)cc1)C2
- IC50 [1]: 24.5 nM
- IC50 [2]: 21 µM

Structure (SMILES): COc1ccc2c3c1O[C@H]1C[C@@H](O)C=C[C@@]31CCN(CCCCCCOC1CCN(Cc3ccccc3)CC1)C2
- IC50 [1]: 222 nM
- IC50 [2]: 5.5 µM

Structure (SMILES): COc1ccc2c3c1O[C@H]1C[C@@H](O)C=C[C@@]31CCN(CCCCOc1ccc(CN3CCCCC3)cc1)C2
- IC50 [1]: 12.4 nM
- IC50 [2]: 28 µM

Structure (SMILES): COc1ccc2c3c1O[C@H]1C[C@@H](O)C=C[C@@]31CCN(CCCOc1ccc(CN3CCCCC3)cc1)C2
- IC50 [1]: 18 nM
- IC50 [2]: 24 µM

Structure (SMILES): COc1ccc2c3c1O[C@H]1C[C@@H](O)C=C[C@@]31CCN(CCCCCOc1ccc(CN3CCCCC3)cc1)C2
- IC50 [2]: 29 µM

Structure (SMILES): COc1ccc2c3c1O[C@H]1C[C@@H](O)C=C[C@@]31CCN(CCCCOc1ccc(C(=O)N3CCCC3)cc1)C2
- IC50 [1]: 53.8 nM
- IC50 [2]: 5.6 µM

Structure (SMILES): COc1ccc2c3c1O[C@H]1C[C@@H](O)C=C[C@@]31CCN(CCCCCCCCCOc1ccc(CN3CCCCC3)cc1)C2
- IC50 [1]: 88.1 nM
- IC50 [2]: 64 µM

Structure (SMILES): COc1ccc2c3c1O[C@H]1C[C@@H](O)C=C[C@@]31CCN(CCCCOc1ccc(CN3CCOCC3)cc1)C2
- IC50 [1]: 99.1 nM
- IC50 [2]: 3.3 µM

Structure (SMILES): COc1ccc2c3c1O[C@H]1C[C@@H](O)C=C[C@@]31CCN(CCCCOc1cccc(C(C)N3CCOCC3)c1)C2 (some centres not stated)
- IC50 [1]: 94.1 nM
- IC50 [2]: 7.1 µM

Structure (SMILES): COc1ccc2c3c1O[C@H]1C[C@@H](O)C=C[C@@]31CCN(CCCCCCOc1ccc(C(=O)N3CCCC3)cc1)C2
- IC50 [1]: 122 nM
- IC50 [2]: 9.4 µM
